These compounds were tested against T1, Smo (Mus musculus, UniProt P56726) (assay: Gli reporter luciferase assay in NIH-3T3/Gli reporter cells stimulated with mouse Shh-N end fragment). Details: NIH3T3; 1 μM compound; NIH-3T3/Gli reporter cells with mouse Shh-N culture supernatant, 48 hr; luciferase activity, control without compound as 100; read-out: inhibitory rate (%) at 1 μM.
T1 construct: endogenous in cells; host or cells: NIH-3T3 cells stably carrying the Gli reporter plasmid
Format: cell-based
Protocol: Gli reporter plasmid was constructed by inserting 8×Gli-binding site and chicken δ-crystalline promoter into the upstream of luc+ of pGL3 (Promega).
prepared in reference to the base sequence described in GenBank accession No.; X02187, and chicken genome DNA (Clontech) as a template. PCR reaction was performed using Pfu Turbo (Stratagene) and following the attached protocol. The obtained 108 bp fragment was digested with restriction enzymes BglII and HindIII, and inserted into BglII-HindIII site of pGL3 to give plasmid pGL3/δ-cry promoter.
As 8×Gli-binding site, a sequence containing eight 9-bp Gli bound consensus sequences (GACCACCCA) described in Yoon et al., J. Biol. Chem., vol. 273, pages 3496-3501 (1998) was prepared from synthetic DNA. That is, two synthetic DNAs,
were heat treated at 95° C. for 2 minutes, and incubated at 37° C. for 1 hr for annealing to give a double stranded DNA of the above-mentioned two synthetic DNAs. The obtained double stranded DNA was digested with restriction enzymes BglII and KpnI, and the obtained DNA fragment was inserted into BglII-KpnI site of pGL3/δ-cry promoter to construct plasmid pGL3/δ-cry promoter, 8×Gli binding site, i.e., Gli reporter plasmid.
HEK293 cells were grown in D-MEM medium (Invitrogen) containing 10% fetal bovine serum in a 10 cm dish and pcDNA3.1/mShh-N was introduced into the cells using FuGENE6 (Roche Applied Science). Thereafter, the HEK293 cells were cultured in a carbon dioxide gas incubator at 37° C. for 24 hours, and the medium was exchanged with D-MEM medium (Invitrogen) containing 2% fetal bovine serum. After culturing for 48 hr, a culture supernatant containing recombinant type mouse Shh-N end fragment was obtained by filtration using a filter ([…]).
Using D-MEM (Invitrogen) containing 10% fetal bovine serum, expression plasmid pcDNA3.1 and Gli reporter plasmid (pGL3/δ-cry promoter, 8×Gli binding site) produced by the method of Experimental Example 1 were introduced into NIH-3T3 cells grown in a 10 cm dish by the use of FuGENE6 (Roche Applied Science).
After culture for 24 hr, the cells were recovered, suspended in D-MEM medium containing 10% fetal bovine serum and supplemented with Geneticin (Life Technologies Oriental, Inc.) to a final concentration of 500 μg/ml, diluted to 10^4 cells/ml, plated on a 96 well plate, and cultured in a carbon dioxide gas incubator at 37° C. to give Geneticin resistant transformed cell line.
The obtained transformed cell line was cultured in a 96 well plate, mouse Shh-N end fragment obtained in Experimental Example 3 was added, and NIH-3T3/Gli reporter cell, which is a cell line capable of induction of luciferase expression, was selected.
NIH-3T3/Gli reporter cells cultured in D-MEM (Invitrogen) containing 10% fetal bovine serum were plated in a 96 well white plate at 1×10^4 cells/well, and cultured overnight in a carbon dioxide gas incubator at 37° C. The medium was removed, a compound (50 μl) and culture supernatant of mouse Shh-N end fragment-expressing HEK293 (D-MEM medium containing 2% fetal bovine serum, 50 μl) were added, and the cells were cultured for 48 hr in a carbon dioxide gas incubator at 37° C. Bright-Glo (Promega, 50 μl) was added, and the mixture was stirred, after which luciferase activity was measured by EnVision (PerkinElmer). The inhibition rate was calculated based on the luciferase activity of the control without addition of the compound as 100.

T1 sequence (P56726 33-793): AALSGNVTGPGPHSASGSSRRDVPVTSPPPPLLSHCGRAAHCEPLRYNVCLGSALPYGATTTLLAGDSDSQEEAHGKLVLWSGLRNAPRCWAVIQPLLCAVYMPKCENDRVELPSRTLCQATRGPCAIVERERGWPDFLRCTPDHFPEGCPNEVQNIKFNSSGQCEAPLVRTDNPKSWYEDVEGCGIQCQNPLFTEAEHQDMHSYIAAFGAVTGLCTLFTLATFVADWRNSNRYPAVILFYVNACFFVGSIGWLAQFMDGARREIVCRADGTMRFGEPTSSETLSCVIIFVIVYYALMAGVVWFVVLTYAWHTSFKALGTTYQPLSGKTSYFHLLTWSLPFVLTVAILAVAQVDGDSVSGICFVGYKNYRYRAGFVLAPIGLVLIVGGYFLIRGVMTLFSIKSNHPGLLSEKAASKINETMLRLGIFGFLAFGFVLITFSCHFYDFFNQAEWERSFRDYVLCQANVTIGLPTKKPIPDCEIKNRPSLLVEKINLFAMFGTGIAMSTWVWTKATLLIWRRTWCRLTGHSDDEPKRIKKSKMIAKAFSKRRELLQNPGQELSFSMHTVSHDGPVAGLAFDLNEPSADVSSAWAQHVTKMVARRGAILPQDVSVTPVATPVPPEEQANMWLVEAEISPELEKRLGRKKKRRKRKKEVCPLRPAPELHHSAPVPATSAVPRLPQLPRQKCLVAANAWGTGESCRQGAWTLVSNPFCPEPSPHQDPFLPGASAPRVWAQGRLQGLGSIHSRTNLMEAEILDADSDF

| Structure (SMILES) | inhibition at 1 µM [%] |
| --- | --- |
| CCCCCn1c(C)nc2c(c(OCC(F)(F)F)c(C(=O)NC3CCN(C(=O)CO)CC3)n2C)c1=O [Example 11, N-[1-(hydroxyacetyl)piperidin-4-yl]-2,7-dimethyl-4-oxo-3-pentyl-5-(2,2,2-trifluoroethoxy)-4,7-dihydro-3H-pyrrolo[2,3-d]pyrimidine-6-carboxamide] | 96 |
| CCc1nc2c(c(OCC(F)(F)F)c(C(=O)NC3CC[S+]([O-])CC3)n2C)c(=O)n1CC(=O)c1ccccc1 (stereo not shown) [Example 21, 2-ethyl-7-methyl-N-(1-oxidetetrahydro-2H-thiopyran-4-yl)-4-oxo-3-(2-oxo-2-phenylethyl)-5-(2,2,2-trifluoroethoxy)-4,7-dihydro-3H-pyrrolo[2,3-d]pyrimidine-6-carboxamide] | 97 |
| CCOc1c(C(=O)NC2CCN(C(=O)CO)CC2)sc2nc(C)n(CC(=O)c3ccccc3)c(=O)c12 [Example 18, 5-ethoxy-N-[1-(hydroxyacetyl)piperidin-4-yl]-2-methyl-4-oxo-3-(2-oxo-2-phenylethyl)-3,4-dihydrothieno[2,3-d]pyrimidine-6-carboxamide] | 97 |
| Cc1nc2c(c(OC(C)C)c(C(=O)NC3CCN(C(=O)CO)CC3)n2C)c(=O)n1CC(=O)c1ccccc1 [Example 3, N-[1-(hydroxyacetyl)piperidin-4-yl]-2,7-dimethyl-5-(1-methylethoxy)-4-oxo-3-(2-oxo-2-phenylethyl)-4,7-dihydro-3H-pyrrolo[2,3-d]pyrimidine-6-carboxamide] | 93 |
| Cc1nc2c(c(OCC(F)(F)F)c(C(=O)NC3CCN(C(=O)CO)CC3)n2C)c(=O)n1CCc1ccccc1 [Example 12, N-[1-(hydroxyacetyl)piperidin-4-yl]-2,7-dimethyl-4-oxo-3-(2-phenylethyl)-5-(2,2,2-trifluoroethoxy)-4,7-dihydro-3H-pyrrolo[2,3-d]pyrimidine-6-carboxamide] | 98 |
| CCc1nc2c(c(OCC(F)(F)F)c(C(=O)NC3CCN(C(=O)CO)CC3)n2C)c(=O)n1CC(=O)c1ccccc1 [Example 13, 2-ethyl-N-[1-(hydroxyacetyl)piperidin-4-yl]-7-methyl-4-oxo-3-(2-oxo-2-phenylethyl)-5-(2,2,2-trifluoroethoxy)-4,7-dihydro-3H-pyrrolo[2,3-d]pyrimidine-6-carboxamide] | 97 |
| CCc1nc2c(c(OCC(F)(F)F)c(C(=O)NC3CCN(C(=O)CO)CC3)n2C)c(=O)n1CC(=O)c1ccc(F)cc1 [Example 33, 2-ethyl-3-[2-(4-fluorophenyl)-2-oxoethyl]-N-[1-(hydroxyacetyl)piperidin-4-yl]-7-methyl-4-oxo-5-(2,2,2-trifluoroethoxy)-4,7-dihydro-3H-pyrrolo[2,3-d]pyrimidine-6-carboxamide] | 96 |
| CCc1nc2c(c(OC(C)C)c(C(=O)NC3CCN(C(=O)CO)CC3)n2C)c(=O)n1CC(=O)c1ccc(F)cc1 [Example 34, 2-ethyl-3-[2-(4-fluorophenyl)-2-oxoethyl]-N-[1-(hydroxyacetyl)piperidin-4-yl]-7-methyl-5-(1-methylethoxy)-4-oxo-4,7-dihydro-3H-pyrrolo[2,3-d]pyrimidine-6-carboxamide] | 97 |
| Cc1nc2c(c(OCC(F)(F)F)c(C(=O)NC3CCN(C(=O)CO)CC3)n2C)c(=O)n1Cc1ccccc1Cl [Example 14, 3-(2-chlorobenzyl)-N-[1-(hydroxyacetyl)piperidin-4-yl]-2,7-dimethyl-4-oxo-5-(2,2,2-trifluoroethoxy)-4,7-dihydro-3H-pyrrolo[2,3-d]pyrimidine-6-carboxamide] | 95 |
| COc1cccc(Cn2c(C)nc3c(c(OCC(F)(F)F)c(C(=O)NC4CCN(C(=O)CO)CC4)n3C)c2=O)c1 [Example 6, N-[1-(hydroxyacetyl)piperidin-4-yl]-3-(3-methoxybenzyl)-2,7-dimethyl-4-oxo-5-(2,2,2-trifluoroethoxy)-4,7-dihydro-3H-pyrrolo[2,3-d]pyrimidine-6-carboxamide] | 97 |
| Cc1nc2c(c(OC(C)C)c(C(=O)NC3CCN(C(=O)CO)CC3)n2C)c(=O)n1-c1ccccc1 [Example 29, N-[1-(hydroxyacetyl)piperidin-4-yl]-2,7-dimethyl-5-(1-methylethoxy)-4-oxo-3-phenyl-4,7-dihydro-3H-pyrrolo[2,3-d]pyrimidine-6-carboxamide] | 99 |
| CCc1nc2c(c(OCC(F)(F)F)c(C(=O)NC3CCN(C(=O)CO)CC3)n2C)c(=O)n1Cc1cccc(Cl)c1 [Example 17, 3-(3-chlorobenzyl)-2-ethyl-N-[1-(hydroxyacetyl)piperidin-4-yl]-7-methyl-4-oxo-5-(2,2,2-trifluoroethoxy)-4,7-dihydro-3H-pyrrolo[2,3-d]pyrimidine-6-carboxamide] | 98 |
| COc1ccccc1Cn1c(C)nc2c(c(OCC(F)(F)F)c(C(=O)NC3CCN(C(=O)CO)CC3)n2C)c1=O [Example 8, N-[1-(hydroxyacetyl)piperidin-4-yl]-3-(2-methoxybenzyl)-2,7-dimethyl-4-oxo-5-(2,2,2-trifluoroethoxy)-4,7-dihydro-3H-pyrrolo[2,3-d]pyrimidine-6-carboxamide] | 96 |
| Cc1nc2c(c(OCC(F)(F)F)c(C(=O)NC3CCN(C(=O)CO)CC3)n2C)c(=O)n1Cc1ccccc1 [Example 4, 3-benzyl-N-[1-(hydroxyacetyl)piperidin-4-yl]-2,7-dimethyl-4-oxo-5-(2,2,2-trifluoroethoxy)-4,7-dihydro-3H-pyrrolo[2,3-d]pyrimidine-6-carboxamide] | 98 |
| CCc1nc2c(c(OCC(F)(F)F)c(C(=O)NC3CCOCC3)n2C)c(=O)n1CC(=O)c1ccccc1 [Example 16, 2-ethyl-7-methyl-4-oxo-3-(2-oxo-2-phenylethyl)-N-(tetrahydro-2H-pyran-4-yl)-5-(2,2,2-trifluoroethoxy)-4,7-dihydro-3H-pyrrolo[2,3-d]pyrimidine-6-carboxamide] | 97 |
| Cc1nc2c(c(OCC(F)(F)F)c(C(=O)NC3CCN(C(=O)CO)CC3)n2C)c(=O)n1Cc1cccc(Cl)c1 [Example 10, 3-(3-chlorobenzyl)-N-[1-(hydroxyacetyl)piperidin-4-yl]-2,7-dimethyl-4-oxo-5-(2,2,2-trifluoroethoxy)-4,7-dihydro-3H-pyrrolo[2,3-d]pyrimidine-6-carboxamide] | 98 |
| CCc1nc2c(c(OC(C)C)c(C(=O)NC3CCN(C(=O)CO)CC3)n2C)c(=O)n1CC(=O)c1ccccc1 [Example 22, 2-ethyl-N-[1-(hydroxyacetyl)piperidin-4-yl]-7-methyl-5-(1-methylethoxy)-4-oxo-3-(2-oxo-2-phenylethyl)-4,7-dihydro-3H-pyrrolo[2,3-d]pyrimidine-6-carboxamide] | 98 |
| Cc1nc2c(c(OCC(F)(F)F)c(C(=O)NC3CCN(C(=O)CO)CC3)n2C)c(=O)n1CCc1ccc(F)cc1 [Example 15, 3-[2-(4-fluorophenyl)ethyl]-N-[1-(hydroxyacetyl)piperidin-4-yl]-2,7-dimethyl-4-oxo-5-(2,2,2-trifluoroethoxy)-4,7-dihydro-3H-pyrrolo[2,3-d]pyrimidine-6-carboxamide] | 97 |
| Cc1nc2c(c(OCC(F)(F)F)c(C(=O)NC3CCN(C(=O)CO)CC3)n2C)c(=O)n1Cc1ccc(F)cc1 [Example 5, 3-(4-fluorobenzyl)-N-[1-(hydroxyacetyl)piperidin-4-yl]-2,7-dimethyl-4-oxo-5-(2,2,2-trifluoroethoxy)-4,7-dihydro-3H-pyrrolo[2,3-d]pyrimidine-6-carboxamide] | 100 |

Reference: US8614208B2, “Fused heterocyclic ring derivative and use thereof” (Takeda Pharmaceutical Company Limited, priority 2009, dated 2013)
